The subject of assay [1] is mouse embryonic fibroblasts transformed with SV40 large T antigen. The experiment in a line: Proliferation of SV40 transformed mouse embryonic fibroblasts. The class given is cell-based. Particulars: Mus musculus, Fibroblast; data not shown; read-out: concentration required to inhibit growth by 50%. As to the method: Two compounds, 24 referred to herein as SR-4 and 27 referred to herein as SR-7, were examined in greater detail as to their effects on biological activity. The proliferation of MCF-7, MDA-MB-231 and SV40 transformed mouse embryonic fibroblasts was measured by a previously described colorimetric assay (Wipf P, Jung J-K, Rodriguez S, Lazo JS Synthesis and biological evaluation of Deoxypreussomerin A and Palmarumycin CP 1 and related naphthoquinone spiroketals. Tetrahedron 57:283-296, 2001 and Vogt A, Rice RL, Settineri CE, Yokokawa F, Yokokawa S, Wipf P and Lazo JS (1998) Disruption of insulin-like growth factor-I signaling and down-regulation of Cdc2 by SC-ααδ9, a novel small molecule antisignaling agent identified in a targeted array library. J Pharmacol Exptl Therap 287:806-813.). Briefly, the inventors seeded 4,000-6,000 cells per well in microtiter plates. Cells were allowed to attach overnight and treated with vehicle or compounds for 72 h, after which the medium was replaced with serum free medium containing 0.1% 3-[4,5-dimethylthiazol-2-yl]-2,5-diphenyl tetrazolium bromide. Plates were incubated for 3 hours in the dark and total cell number was determined by spectrophotometrically at 540 nm as previously described (Vogt A, Rice RL, Settineri CE, Yokokawa F, Yokokawa S, Wipf P and Lazo JS (1998) Disruption of insulin-like growth factor-1 signaling and down-regulation of Cdc2 by SC-ααδ9, a novel small molecule antisignaling agent identified in a targeted array library. J Pharmacol Exptl Therap 287:806-813.). […] Cells were maintained in RPMI 1640 medium containing 10% fetal bovine serum and the paclitaxel-resistant cells also contained 17 nM paclitaxel and 10 μM verapamil. […] The number of cells was determined spectrophotometrically at 490 nm minus absorbance at 630 nm after exposure to 3-(4,5-dimethylthiazol-2-yl)-5-(3-carboxymethoxyphenyl)-2-(4-sulfophenyl)-2H-tetrazolium and N-methyldibenzopyurazine methyl sulfate. […]

Another assay relates to tsFT210 cells. The assay is described as follows: Flow cytometry, G2/M arrest in tsFT210 cells. The class given is cell-based, mouse. The note with it: 2.5 to 10 μM, 6 hours after release at 32.0° C. On the procedure: Oncogene 18:6989-6996, Th′ng JP, Wright PS, Hamaguchi J, Lee MG, Norbury CJ, Nurse P and Bradbury EM (1990) The FT210 cell line is a mouse G2 phase mutant with a temperature-sensitive CDC2 gene product. Cell 63:313-324.). Cell proliferation was blocked at G2 phase by incubation at 39.4° C. for 17 h. The synchronized cells were then released by re-incubating at 32.0° C. and treated immediately with 0-10 μM SR-7, 1 μM nocodazole or 100 EM SC-ααδ9, respectively, to probe for G2/M arrest. […] The harvested cells were stained with a solution containing 50 μg/ml propidium iodide and 250 μg/ml RNase A. Flow cytometry analysis was conducted with a Becton Dickinson FACS Star (Franklin Lakes, N.J.). […] This G2/M retention at 4C is probably due to the extended cell cycle blockage at 39.4° C. (Osada H, Cui CB, Onose R and Hanaoka F (1997) Screening of cell cycle inhibitors from microbial metabolites by a bioassay using a mouse cdc2 mutant cell line, tsFT210. Bioorg Med Chem 5:193-203). […] SC-ααδ9 is an inhibitor of the Cdc25 family of phosphatases that controls cell cycle checkpoints (Rice RL, Rusnak JM, Yokokawa F, Yokokawa S, Messner DJ, Boynton AL, Wipf P and Lazo JS (1997) A targeted library of small molecule, tyrosine and dual specificity phosphatase inhibitors derived from a rational core design and random side chain variation. Biochemistry 36:15965-15974).

For the next assay, the system named is recombinant Cdc25. The assay is described as follows: In vitro inhibition of recombinant Cdc25. Format: biochemical. The note with it: 30 μM, data not shown.
The test system of assay [2] is 1 A9, 1 A9/PTX10 and 1 A9/PTX22 cells. The experiment in a line: Growth inhibition of paclitaxel-sensitive and -resistant 1A9 cells. Format: cell-based, human. On the procedure:
Two compounds, 24 referred to herein as SR-4 and 27 referred to herein as SR-7, were examined in greater detail as to their effects on biological activity. The proliferation of MCF-7, MDA-MB-231 and SV40 transformed mouse embryonic fibroblasts was measured by a previously described colorimetric assay (Wipf P, Jung J-K, Rodriguez S, Lazo JS Synthesis and biological evaluation of Deoxypreussomerin A and Palmarumycin CP 1 and related naphthoquinone spiroketals. Tetrahedron 57:283-296, 2001 and Vogt A, Rice RL, Settineri CE, Yokokawa F, Yokokawa S, Wipf P and Lazo JS (1998) Disruption of insulin-like growth factor-I signaling and down-regulation of Cdc2 by SC-ααδ9, a novel small molecule antisignaling agent identified in a targeted array library. J Pharmacol Exptl Therap 287:806-813.). Briefly, the inventors seeded 4,000-6,000 cells per well in microtiter plates. […] Plates were incubated for 3 hours in the dark and total cell number was determined by spectrophotometrically at 540 nm as previously described (Vogt A, Rice RL, Settineri CE, Yokokawa F, Yokokawa S, Wipf P and Lazo JS (1998) Disruption of insulin-like growth factor-1 signaling and down-regulation of Cdc2 by SC-ααδ9, a novel small molecule antisignaling agent identified in a targeted array library. J Pharmacol Exptl Therap 287:806-813.). […]

We go through 2 molecules from patent publication US6673937B2, “Syntheses and methods of use of new antimitotic agents” (The University of Pittsburgh, priority 2000, dated 2004).

`O=C1C=CC2(Oc3cccc4cccc(c34)O2)c2cccc(O)c21` [palmarumycin CP1, 8-hydroxy-1-oxo-1,4-dihydronaphthalene-4-spiro-2′-naphtho[1″,8″-de] [1′,3′] dioxin, reference compound]: the IC50 in assay [1] stood at 3000 nM.

Regarding `O=C1C=CC2(Oc3cccc4cccc(c34)O2)c2cccc(OCc3ccco3)c21` [SR-7, 8-(furan-2-ylmethoxy)-1-oxo-1,4-dihydronaphthalene-4-spiro-2′-naphto [1″,8″-de][1′,3′] dioxin], the IC50 in assay [1] is 3000 nM. Moreover, the “G2/M cell cycle transition” value in the assay on tsFT210 cells is reported as “concentration-dependent arrest in the G2/M phase”; in the assay with tsFT210 cells (listed as 27), “can arrest mammalian cells in the G2/M phase”. For the same molecule, the “inhibition of recombinant Cdc25 activity” value with recombinant Cdc25 is reported as “no inhibition”. In addition, the “inhibition of paclitaxel-sensitive and -resistant cell growth” value in assay [2] is “almost equal inhibition”.
